The text below walks through data of ChEMBL document CHEMBL3797051 (Medchemcomm, 2016).

Each structure is given as a SMILES string.

Experiment [1] addresses T1, Histone deacetylase 8 (Homo sapiens, UniProt Q9BY41).
T1 sequence (Q9BY41 whole entry): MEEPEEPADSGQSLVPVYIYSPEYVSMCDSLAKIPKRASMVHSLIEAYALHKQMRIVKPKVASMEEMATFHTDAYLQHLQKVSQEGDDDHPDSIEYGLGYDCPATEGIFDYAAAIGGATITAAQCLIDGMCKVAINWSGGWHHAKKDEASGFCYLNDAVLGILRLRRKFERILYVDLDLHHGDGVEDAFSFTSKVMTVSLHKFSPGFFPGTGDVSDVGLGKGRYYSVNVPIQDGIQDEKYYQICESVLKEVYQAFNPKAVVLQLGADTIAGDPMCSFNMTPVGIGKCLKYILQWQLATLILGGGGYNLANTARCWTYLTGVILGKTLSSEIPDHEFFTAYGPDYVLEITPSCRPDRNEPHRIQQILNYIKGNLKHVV
Put plainly: Inhibition of recombinant human HDAC8 expressed in Escherichia coli assessed as hydrolase activity using fluorogenic AC-LGK-tfa-AMC as substrate measured after 60 mins by fluorescence analysis.

Experiment [2] addresses T1, Histone deacetylase 8. Nature of the experiment: Inhibition of recombinant human HDAC8 expressed in Escherichia coli assessed as inhibition constant ki,1 using fluorogenic AC-LGK-tfa-AMC as substrate measured after 60 mins by fluorescence analysis.
For another experiment, the target named is Histone deacetylase 4 (Homo sapiens, UniProt P56524). Nature of the experiment: Inhibition of N-terminal GST-tagged recombinant human HDAC4 assessed as hydrolase activity using fluorogenic […] as substrate measured after 60 mins by fluorescence analysis.
For experiment [3], the target named is T2, Protein deacetylase HDAC6 (Homo sapiens, UniProt Q9UBN7).
T2 sequence (Q9UBN7 whole entry): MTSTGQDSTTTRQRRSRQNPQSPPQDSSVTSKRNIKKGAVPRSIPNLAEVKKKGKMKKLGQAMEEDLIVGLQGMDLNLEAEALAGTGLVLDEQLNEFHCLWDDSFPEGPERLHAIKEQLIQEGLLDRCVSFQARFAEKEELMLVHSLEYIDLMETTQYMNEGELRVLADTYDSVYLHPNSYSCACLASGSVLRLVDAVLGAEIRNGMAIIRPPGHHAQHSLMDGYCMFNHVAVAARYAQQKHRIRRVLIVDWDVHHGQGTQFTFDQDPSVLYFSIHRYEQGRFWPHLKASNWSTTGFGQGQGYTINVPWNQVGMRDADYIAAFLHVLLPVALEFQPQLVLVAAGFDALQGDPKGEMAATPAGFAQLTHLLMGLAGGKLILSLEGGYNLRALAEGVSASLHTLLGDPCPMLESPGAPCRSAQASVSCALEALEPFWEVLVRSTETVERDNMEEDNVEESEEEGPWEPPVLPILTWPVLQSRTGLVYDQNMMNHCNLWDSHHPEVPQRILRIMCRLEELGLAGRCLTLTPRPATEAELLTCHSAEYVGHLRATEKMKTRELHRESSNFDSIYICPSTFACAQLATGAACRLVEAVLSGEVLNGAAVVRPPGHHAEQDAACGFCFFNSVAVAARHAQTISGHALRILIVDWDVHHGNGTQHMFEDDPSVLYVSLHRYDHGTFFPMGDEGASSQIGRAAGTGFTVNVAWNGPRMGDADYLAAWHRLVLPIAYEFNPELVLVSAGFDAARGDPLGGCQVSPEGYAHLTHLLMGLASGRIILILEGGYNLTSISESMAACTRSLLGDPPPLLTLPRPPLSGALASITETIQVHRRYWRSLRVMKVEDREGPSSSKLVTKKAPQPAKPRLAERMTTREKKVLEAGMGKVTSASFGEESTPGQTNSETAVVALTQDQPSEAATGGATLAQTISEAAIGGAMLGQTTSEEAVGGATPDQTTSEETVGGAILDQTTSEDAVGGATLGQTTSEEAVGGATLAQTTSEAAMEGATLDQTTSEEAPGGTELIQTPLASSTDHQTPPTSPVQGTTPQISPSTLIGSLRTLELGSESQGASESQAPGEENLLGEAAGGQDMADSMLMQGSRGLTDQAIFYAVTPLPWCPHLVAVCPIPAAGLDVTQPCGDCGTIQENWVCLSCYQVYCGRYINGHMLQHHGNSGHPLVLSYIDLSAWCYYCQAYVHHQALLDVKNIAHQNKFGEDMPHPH
Put plainly: Inhibition of His-tagged recombinant human HDAC6 expressed in insect cells assessed as hydrolase activity using fluorogenic AC-LGK-ac-AMC as substrate measured after 60 mins by fluorescence analysis.

Histone deacetylase 4, sequence (P56524 whole entry): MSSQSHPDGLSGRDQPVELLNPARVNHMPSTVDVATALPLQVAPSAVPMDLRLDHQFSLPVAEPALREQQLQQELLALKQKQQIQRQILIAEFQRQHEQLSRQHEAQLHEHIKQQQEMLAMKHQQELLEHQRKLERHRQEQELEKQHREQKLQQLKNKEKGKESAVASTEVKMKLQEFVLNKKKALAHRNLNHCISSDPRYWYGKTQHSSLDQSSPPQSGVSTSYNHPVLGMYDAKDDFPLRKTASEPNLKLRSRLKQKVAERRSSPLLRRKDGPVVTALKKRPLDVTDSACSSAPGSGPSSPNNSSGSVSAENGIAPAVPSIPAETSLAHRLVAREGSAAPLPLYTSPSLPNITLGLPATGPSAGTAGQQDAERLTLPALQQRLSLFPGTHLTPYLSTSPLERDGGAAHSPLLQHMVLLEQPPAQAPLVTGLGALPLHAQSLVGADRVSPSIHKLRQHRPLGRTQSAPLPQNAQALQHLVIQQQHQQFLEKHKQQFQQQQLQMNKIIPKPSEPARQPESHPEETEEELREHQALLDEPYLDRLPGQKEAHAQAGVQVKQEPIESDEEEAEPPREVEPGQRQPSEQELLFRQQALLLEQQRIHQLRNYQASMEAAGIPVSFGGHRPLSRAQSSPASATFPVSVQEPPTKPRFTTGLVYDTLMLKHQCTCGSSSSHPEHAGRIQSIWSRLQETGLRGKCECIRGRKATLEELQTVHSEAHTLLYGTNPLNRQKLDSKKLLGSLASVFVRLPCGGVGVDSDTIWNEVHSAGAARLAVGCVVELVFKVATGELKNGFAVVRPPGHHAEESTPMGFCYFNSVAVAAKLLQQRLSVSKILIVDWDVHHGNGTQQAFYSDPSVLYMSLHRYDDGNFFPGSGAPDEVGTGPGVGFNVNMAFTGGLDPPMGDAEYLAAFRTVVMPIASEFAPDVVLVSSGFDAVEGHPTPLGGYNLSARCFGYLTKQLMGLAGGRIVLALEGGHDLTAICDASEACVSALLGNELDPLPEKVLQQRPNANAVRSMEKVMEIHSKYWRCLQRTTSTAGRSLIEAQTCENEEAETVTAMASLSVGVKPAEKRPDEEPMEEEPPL

Consider `O=C(CCCCCCC(=O)C(F)(F)F)Nc1ccccc1`, for which the Ki was 33 nM on Histone deacetylase 8 [1], 7300 nM at Histone deacetylase 8 [2], 5.1 nM on Histone deacetylase 4 and 4500 nM in experiment [3].
